pEC50: −log10 of the molar value. Structures can show the parent of a compound that is named as a salt.
Legend:
VSV-G PP = assay type: cell-based, vesicular stomatitis virus
[1] = ATP content cytotoxicity assay; settings: human, HEK293-ACE2 cells
[2] = tested on: SARS-CoV-2-S PP (Wuhan-Hu-1 spike); assay: microbe, parasite or virus in culture; assay type: cell-based; settings: Severe acute respiratory syndrome coronavirus 2, read-out: PP EC50
[3] = tested on: SARS-CoV-2 (USA_WA1/2020); assay type: cell-based

SMILES | potency in the VSV-G PP entry counter assay compared with SARS-CoV-2-S PP entry (VSV-G PP) | EC50 at 48 h [1] [nM] | pEC50 [2] | protective effect against cell death caused by the virus (CPE rescue) [3]
COc1cc2c(cc1Cc1cccc(Cl)c1F)c(=O)c(C(=O)O)cn2[C@H](CO)C(C)C [elvitegravir] | same potency | – | – | –
COc1cc(N2CCC(N3CCN(C)CC3)CC2)ccc1Nc1ncc(Cl)c(Nc2ccccc2P(C)(C)=O)n1 [Brigatinib, brigatinib] | – | 670 | 5.37 | –
CCOC(=O)[C@H]1O[C@@H]1C(=O)N[C@@H](CC(C)C)C(=O)NCCC(C)C [Aloxistatin, aloxistatin] | – | > 50000 | 6.72 | –
Oc1ccc(Cl)cc1Cc1cc(Cl)ccc1O [Dichlorophen, dichlorophen] | – | – | 7.52 | not confirmed
Nc1ncnc2c1ncn2CCOCP(=O)(O)O [adefovir] | same potency | – | – | –
Cc1cccc(/C=N/Nc2cc(N3CCOCC3)nc(OCCc3ccccn3)n2)c1 [Apilimod, apilimod] | – | 9310 | 6.92 | –
C[C@@H]1CCO[C@H]2Cn3cc(C(=O)NCc4ccc(F)cc4F)c(=O)c(O)c3C(=O)N12 [dolutegravir] | same potency | – | – | –
CC(C)OC(=O)OCOP(=O)(CO[C@H](C)Cn1cnc2c(N)ncnc21)OCOC(=O)OC(C)C [tenofovir disoproxil fumarate] | same potency | – | – | –
CCCC[C@@H](C=O)NC(=O)[C@H](CC(C)C)NC(=O)OCc1ccccc1 [Calpeptin, calpeptin] | – | > 50000 | 5.92 | –

— doi:10.1101/2021.10.04.463106, “A high throughput screening assay for inhibitors of SARS-CoV-2 pseudotyped particle entry” (bioRxiv, 2021)
